These results are taken from ChEMBL document CHEMBL4342418, “1,2,3-Triazole-containing hybrids as potential anticancer agents: Current developments, action mechanisms and structure-activity relationships” (Eur J Med Chem, 2019).

As usually defined, the IC50 is the midpoint of a concentration-inhibition curve.

Type in all cases: functional, cell-based
One assay relates to MCF7. In words: cells. The settings on record: Homo sapiens.
The test system of the next assay is HL-60. In words: Antiproliferative activity against human HL60 cells by MTT assay. (In general: Formazan colour is commonly taken as a measure of viable cells.)
The test system of a further assay is P388. In words: Antiproliferative activity against mouse P388 cells by MTT assay.
For a further assay, the system named is Lu1. Description: Antiproliferative activity against human Lu1 cells by MTT assay.
For another assay, the system named is A549. In words: Antiproliferative activity against human A549 cells assessed as reduction in cell viability after 24 hrs by MTT assay. Particulars: A549, 24 h.
A further assay deals with PC-3. In words: Antiproliferative activity against human PC3 cells assessed as reduction in cell viability after 24 hrs by MTT assay. The settings on record: PC-3, 24 h.
Another assay relates to MDA-MB-231. Description: Antiproliferative activity against human MDA-MB-231 cells assessed as reduction in cell viability after 24 hrs by MTT assay. The settings on record: MDA-MB-231, 24 h.
For the next assay, the system named is K562. Description: Antiproliferative activity against human K562 cells assessed as reduction in cell viability after 24 hrs by MTT assay. Particulars: K562, 24 h.
The subject of a further assay is COLO 205. Description: Antiproliferative activity against human COLO205 cells assessed as reduction in cell viability after 24 hrs by MTT assay. The settings on record: COLO 205, 24 h.
Another assay deals with A-431. Description: Antiproliferative activity against human A431 cells assessed as reduction in cell viability after 24 hrs by MTT assay. The settings on record: A-431, 24 h.
The next assay relates to HeLa. In words: Antiproliferative activity against human HeLa cells by MTT assay.

Description for MCF7: Antiproliferative activity against human MCF7 cells by MTT assay

`C[C@H]1[C@@H](OCc2cn(-c3cccc(C(=O)N4CCCCC4)c3)nn2)O[C@@H]2O[C@@]3(C)CC[C@H]4[C@H](C)CC[C@@H]1[C@@]24OO3`: the IC50 in the assay with MCF7, in the assay with HL-60, with P388 and with Lu1 was 2.5 to 176 µM each time.
Take `CC1CCCCN1C(=O)c1cccc(-n2cc(CO[C@H]3O[C@@H]4O[C@@]5(C)CC[C@H]6[C@H](C)CC[C@@H]([C@H]3C)[C@@]46OO5)nn2)c1` (stereo partly specified): the IC50 in the assay with MCF7, in the assay with HL-60, in the assay on P388 and in the assay with Lu1 was 2.5 to 176 µM throughout.
Regarding `C[C@H]1[C@@H](OCc2cn(-c3cccc(C(=O)N4CCOCC4)c3)nn2)O[C@@H]2O[C@@]3(C)CC[C@H]4[C@H](C)CC[C@@H]1[C@@]24OO3`, the IC50 in the assay on MCF7, in the assay with HL-60, in the assay with P388 and in the assay with Lu1 was 2.5 to 176 µM throughout.
Take `C[C@H]1[C@@H](OCc2cn(-c3cccc(C(=O)N4CCN(c5ccccc5)CC4)c3)nn2)O[C@@H]2O[C@@]3(C)CC[C@H]4[C@H](C)CC[C@@H]1[C@@]24OO3`: the IC50 in the assay with MCF7, in the assay with HL-60, in the assay with P388 and in the assay with Lu1 was 2.5 to 176 µM throughout.
Regarding `CC(=O)c1ccccc1-n1cc(CO[C@H]2O[C@@H]3O[C@@]4(C)CC[C@H]5[C@H](C)CC[C@@H]([C@H]2C)[C@@]35OO4)nn1`, the IC50 in the assay on A549, in the assay on PC-3, with MDA-MB-231, in the assay with K562, in the assay with COLO 205 and in the assay on A-431 was 4.06 to 89.9 µM throughout.
For `C[C@H]1[C@@H](OCc2cn(-c3ccc(C#N)cc3)nn2)O[C@@H]2O[C@@]3(C)CC[C@H]4[C@H](C)CC[C@@H]1[C@@]24OO3`, the half-inhibitory concentration (IC50) with A549, with PC-3, in the assay with MDA-MB-231, in the assay on K562, in the assay on COLO 205 and with A-431 was 4.06 to 89.9 µM each time.
Regarding `CC(=O)c1ccc(-n2cc(CO[C@H]3O[C@@H]4O[C@@]5(C)CC[C@H]6[C@H](C)CC[C@@H]([C@H]3C)[C@@]46OO5)nn2)cc1`, the IC50 in the assay with A549, with PC-3, in the assay on MDA-MB-231, in the assay with K562, with COLO 205 and with A-431 was 4.06 to 89.9 µM in each case.
Take `C[C@H]1[C@@H](OCc2cn(-c3ccc([N+](=O)[O-])cc3)nn2)O[C@@H]2O[C@@]3(C)O[C@]24[C@H]1CC[C@@H](C)[C@@H]4C[C@H]3O`: the IC50 in the assay on A549, in the assay on PC-3, in the assay with MDA-MB-231, with K562, in the assay with COLO 205 and in the assay on A-431 was 4.06 to 89.9 µM throughout.
On to `CC1CCN(C(=O)c2cccc(-n3cc(CO[C@H]4O[C@@H]5O[C@@]6(C)CC[C@H]7[C@H](C)CC[C@@H]([C@H]4C)[C@@]57OO6)nn3)c2)CC1`, for which the IC50 in the assay with MCF7, in the assay with HL-60, in the assay on P388 and in the assay with Lu1 was 2.5 to 176 µM throughout.
Turning to `CC(=O)c1cccc(-n2cc(CO[C@H]3O[C@@H]4O[C@@]5(C)CC[C@H]6[C@H](C)CC[C@@H]([C@H]3C)[C@@]46OO5)nn2)c1`, the IC50 in the assay with A549, in the assay with PC-3, in the assay on MDA-MB-231, in the assay on K562, in the assay on COLO 205 and in the assay on A-431 was 4.06 to 89.9 µM each time.
For `C[C@H]1[C@@H](OCc2cn(-c3cccc(C(=O)N4CCN(C)CC4)c3)nn2)O[C@@H]2O[C@@]3(C)CC[C@H]4[C@H](C)CC[C@@H]1[C@@]24OO3`, the half-inhibitory concentration (IC50) with MCF7, in the assay on HL-60, in the assay with P388 and with Lu1 was 2.5 to 176 µM throughout.
Turning to `COc1ccc(-n2cc(Cn3c(=O)sc4cc(Br)ccc43)nn2)cc1`, the half-maximal inhibitory concentration (IC50) worked out at 17.5 µM in the assay with MCF7 and 12.2 µM in the assay on HeLa.
With `C[C@H]1[C@@H](OCc2cn(-c3ccc([N+](=O)[O-])cc3)nn2)O[C@@H]2O[C@@]3(C)CC[C@H]4[C@H](C)CC[C@@H]1[C@@]24OO3`, the IC50 in the assay with A549, in the assay with PC-3, with MDA-MB-231, in the assay with K562, in the assay with COLO 205 and in the assay on A-431 was 4.06 to 89.9 µM each time.
For `CCN(CC)C(=O)c1cccc(-n2cc(CO[C@H]3O[C@@H]4O[C@@]5(C)CC[C@H]6[C@H](C)CC[C@@H]([C@H]3C)[C@@]46OO5)nn2)c1`, the concentration for half-maximal inhibition (IC50) with MCF7, in the assay on HL-60, in the assay with P388 and with Lu1 was 2.5 to 176 µM throughout.
Consider `C[C@@H]1CC[C@H]2C[C@@H](OCc3cn(-c4ccnc5cc(Cl)ccc45)nn3)O[C@@H]3O[C@@]4(C)CC[C@@H]1[C@@]23OO4`, for which the half-inhibitory concentration (IC50) in the assay on MCF7, with HL-60, in the assay on P388 and in the assay with Lu1 was 5.7 to 19.5 µM throughout.
As to `COc1ccc(-c2ccc3c(c2)OCC(=O)N3Cc2cn(-c3cc(Cl)cc(Cl)c3)nn2)cc1`, the IC50 was found to be 21.8 µM in the assay with MCF7 and 19.5 µM with HeLa.
Turning to `CCN1CCN(C(=O)c2cccc(-n3cc(CO[C@H]4O[C@@H]5O[C@@]6(C)CC[C@H]7[C@H](C)CC[C@@H]([C@H]4C)[C@@]57OO6)nn3)c2)CC1`, the 50% inhibitory concentration (IC50) with MCF7, in the assay with HL-60, in the assay on P388 and with Lu1 was 2.5 to 176 µM throughout.
For `C[C@H]1[C@@H](OCc2cn(-c3cccc(C(=O)N4CCCC4)c3)nn2)O[C@@H]2O[C@@]3(C)CC[C@H]4[C@H](C)CC[C@@H]1[C@@]24OO3`, the IC50 in the assay on MCF7, in the assay with HL-60, in the assay with P388 and in the assay on Lu1 was 2.5 to 176 µM in each case.
For the compound `C[C@H]1[C@@H](OCc2cn(-c3ccc(O)cc3)nn2)O[C@@H]2O[C@@]3(C)CC[C@H]4[C@H](C)CC[C@@H]1[C@@]24OO3`, the IC50 in the assay with A549, in the assay on PC-3, in the assay on MDA-MB-231, with K562, in the assay on COLO 205 and with A-431 was 4.06 to 36.6 µM throughout.
For `COc1cc(-c2ccccc2Cl)cc(-c2nnn(Cc3ccccc3)c2C)n1`, the IC50 in the assay on A549 amounted to 42.6 µg/mL; in the assay on PC-3 it was 28.2 µg/mL; in the assay with MDA-MB-231, 42.3 µg/mL.
On to `CC(=O)c1ccccc1-n1cc(CO[C@H]2O[C@@H]3O[C@@]4(C)O[C@]35[C@@H](CC[C@@H](C)[C@@H]5C[C@H]4O)[C@H]2C)nn1`, for which the IC50 with A549, with PC-3, in the assay with MDA-MB-231, with K562, in the assay on COLO 205 and in the assay with A-431 was 4.06 to 89.9 µM throughout.
On to `COc1ccc(-n2cc(CO[C@H]3O[C@@H]4O[C@@]5(C)CC[C@H]6[C@H](C)CC[C@@H]([C@H]3C)[C@@]46OO5)nn2)cc1`, for which the IC50 in the assay with A549, in the assay with PC-3, with MDA-MB-231, with K562, with COLO 205 and in the assay with A-431 was 4.06 to 89.9 µM in each case.
